Test results reported in patent US20240058443A1, “PREVENTION OR MITIGATION OF NK CELL ENGAGING AGENT-RELATED ADVERSE EFFECTS” (Hoffmann-La Roche Inc., priority 2021, published 2024).

What was measured:
CD19+ B cell = assay: Whole blood assay: obinutuzumab-induced B cell depletion measured by flow cytometry; assay type: cell-based; conditions: for B cell depletion induced by obinutuzumab: 100 nM inhibitor, fresh whole blood, obinutuzumab 100 to 0.1 μg/mL, 48 hours, FIG. 1; for target cell killing mediated by NK cell engaging antibody: summary statement of the description, no conditions given
Experimental: FIG. 1. Effect of 100 nM ruxolitinib (ruxo), 100 nM sirolimus (siro), 100 nM dasatinib (dasa) on obinutuzumab-induced CD19^+ B cell depletion in a whole blood assay. Fresh whole blood was incubated with 100, 10, 1 and 0.1 μg/mL obinutuzumab or PGLALA IgG in the presence and absence of 100 nM ruxolitinib, 100 nM sirolimus and 100 nM dasatinib for 48 hours. The PGLALA IgG has a silent Fc region and is a negative control. At 48 hours, blood was collected and lysed and the percentage of CD19^+ B cell among live cells was measured by flow cytometry. Mean of n=2 donors.
(§1) The CD20-targeting, effector-enhanced antibody obinutuzumab (Gazyva®) depletes B cells via FcγR signaling, and can be associated with a risk of infusion reaction characterized by cytokine release induced via FcγR signaling. To assess whether the mTOR inhibitor sirolimus, the JAK1/2 inhibitor ruxolitinib and the Src inhibitor dasatinib can prevent cytokine release induced via FcγR signaling, a whole blood assay using escalating doses of obinutuzumab in the presence and absence of sirolimus, ruxolitinib and dasatinib was conducted. A corresponding anti-CD20 IgG with a silent Fc portion (comprising “PGLALA” mutations L234A, L235A, P329G (Kabat EU numbering)) was used as a negative control (“PGLALA IgG”). In this assay, fresh whole blood is incubated together with concentrations of obinutuzumab ranging from 100 μg/mL to 0.1 μg/mL in the presence and absence of 100 nM sirolimus, 100 nM ruxolitinib and 100 nM dasatinib. To assess the impact of the different kinase inhibitors on cytokine release, serum was collected at 24 hours and cytokines were analyzed by Luminex. To assess the impact of the different kinase inhibitors on B cell depletion, blood was lysed at 48 hours and B cell depletion was measured by flow cytometry.

[1] = system: cytokine release induced via FcγR signaling; assay: Whole blood assay: obinutuzumab-induced cytokine release, serum cytokines analyzed by Luminex; assay type: cell-based; conditions: for levels of IFN-γ: FIG. 2A; for levels of TNF-α: FIG. 2C; for levels of MCP-1: FIG. 2F; for cytokine release: overall statement, whole blood, obinutuzumab; for cytokine release induced by an NK cell engaging antibody: summary statement of the description, no conditions given
Experimental: FIG. 2. Effect of 100 nM ruxolitinib (ruxo), 100 nM sirolimus (siro), 100 nM dasatinib (dasa) on obinutuzumab-induced IFN-γ (FIG. 2A), IL-2 (FIG. 2B), TNF-α (FIG. 2C), IL-6 (FIG. 2D), IL-8 (FIG. 2E) and MCP-1 (FIG. 2F) for 100, 10, 1 and 0.1 μg/mL obinutuzumab in a whole blood assay. Fresh whole blood was incubated with 100, 10, 1 and 0.1 μg/mL obinutuzumab or PGLALA IgG in the presence and absence of 100 nM ruxolitinib, 100 nM sirolimus and 100 nM dasatinib for 48 hours. The PGLALA IgG has a silent Fc region and is a negative control. At 24 hours, serum was collected and cytokines were analyzed by Luminex. Mean of n=2 donors.
as §1

[2] = 100 nM inhibitor, fresh whole blood, obinutuzumab 100 to 0.1 μg/mL, serum at 24 hours
[3] = 100 nM inhibitor, fresh whole blood, obinutuzumab 100 to 0.1 μg/mL, serum at 24 hours, FIG. 2D, first IL-6 of the list
[4] = 100 nM inhibitor, fresh whole blood, obinutuzumab 100 to 0.1 μg/mL, serum at 24 hours, second IL-6 of the list

SMILES | B cell depletion induced by obinutuzumab (CD19+ B cell) | target cell killing mediated by NK cell engaging antibody (CD19+ B cell) | levels of IFN-γ [1, 2] | levels of IL-2 ([1]; 100 nM inhibitor, fresh whole blood, obinutuzumab 100 to 0.1 μg/mL, serum at 24 hours, FIG. 2B) | levels of TNF-α [1, 2] | levels of IL-6 [1, 3] | levels of MCP-1 [1, 2] | levels of IL-6 [1, 4] | potency in reducing cytokine release among the three classes of kinase inhibitors ([1]; comparison of Src, mTOR and JAK1/2 inhibitor at 100 nM) | cytokine release ([1]; 100 nM inhibitor) | cytokine release induced by an NK cell engaging antibody [1]
Cc1nc(Nc2ncc(C(=O)Nc3c(C)cccc3Cl)s2)cc(N2CCN(CCO)CC2)n1 [dasatinib, N-(2-chloro-6-methylphenyl)-2[[6[4-(2-hydroxyethyl)-1-piperazinyl]-2-methyl-4-pyrimidinyl]amino]-5-thiazole carboxamide monohydrate] | did not prevent | retaining | strongly reduced | strongly reduced | strongly reduced | strongly reduced | strongly reduced | strongly reduced | most potent | reduced cytokine release | potently prevent
CO[C@H]1C[C@@H]2CC[C@@H](C)[C@@](O)(O2)C(=O)C(=O)N2CCCC[C@H]2C(=O)O[C@H]([C@H](C)C[C@@H]2CC[C@@H](OCCO)[C@H](OC)C2)CC(=O)[C@H](C)/C=C(\C)[C@@H](O)[C@@H](OC)C(=O)[C@H](C)C[C@H](C)/C=C/C=C/C=C/1C [everolimus, Everolimus] |  | retaining |  |  |  |  |  |  |  |  | potently prevent
N#CC[C@H](C1CCCC1)n1cc(-c2ncnc3[nH]ccc23)cn1 [ruxolitinib, Ruxolitinib] | did not prevent | retaining | reduced |  | reduced | reduced | reduced | reduced |  | reduced cytokine release | potently prevent
CO[C@H]1C[C@@H]2CC[C@@H](C)[C@@](O)(O2)C(=O)C(=O)N2CCCC[C@H]2C(=O)O[C@H]([C@H](C)C[C@@H]2CC[C@@H](O)[C@H](OC)C2)CC(=O)[C@H](C)/C=C(\C)[C@@H](O)[C@@H](OC)C(=O)[C@H](C)C[C@H](C)/C=C/C=C/C=C/1C [sirolimus, Sirolimus] | did not prevent | retaining | reduced |  | reduced | reduced | reduced | reduced |  | reduced cytokine release | potently prevent
CO[C@H]1C[C@@H]2CC[C@@H](C)[C@@](O)(O2)C(=O)C(=O)N2CCCC[C@H]2C(=O)O[C@H]([C@H](C)C[C@@H]2CC[C@@H](OC(=O)C(C)(CO)CO)[C@H](OC)C2)CC(=O)[C@H](C)/C=C(\C)[C@@H](O)[C@@H](OC)C(=O)[C@H](C)C[C@H](C)/C=C/C=C/C=C/1C [temsirolimus, Temsirolimus] |  | retaining |  |  |  |  |  |  |  |  | potently prevent
